Measurements published in PubChem BioAssay AID248 (DTP/NCI, 2004).
Several values for one entry are separate records, joined by “and”; a condition that tells them apart may be missing. Equal values may be shown once. Toxic doses and inconclusive results are not listed. Cut-off read from the data, not from the text of the source: active = T/C of 150% or more; inactive = T/C below 125%.

System: L1210 leukemia ip in BDF1 mice, survival T/C
Experiment: NCI In Vivo Anticancer Drug Screen. Data for tumor model L1210 Leukemia (intraperitoneal) in B6D2F1 (BDF1) mice
Conditions: higher = longer survival
Method in brief: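 Transplanted-tumor mice were given test agent; controls received vehicle only. Survival readings from the two groups were divided (treated over control).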

[1] = endpoint: mean survival time, dose: 100.0 mg/kg/injection, schedule: Q01DX001 (ip), vehicle: saline with Tween-80
[2] = endpoint: mean survival time, dose: 100.0 mg/kg/injection, schedule: Q01DX009 (ip), vehicle: saline with Tween-80
[3] = endpoint: mean survival time, dose: 100.0 mg/kg/injection, schedule: Q04DX003 (ip), vehicle: saline with Tween-80
[4] = endpoint: mean survival time, dose: 200.0 mg/kg/injection, schedule: Q01DX001 (ip), vehicle: saline with Tween-80
[5] = endpoint: mean survival time, dose: 200.0 mg/kg/injection, schedule: Q01DX009 (ip), vehicle: saline with Tween-80
[6] = endpoint: mean survival time, dose: 200.0 mg/kg/injection, schedule: Q04DX003 (ip), vehicle: saline with Tween-80
[7] = endpoint: mean survival time, dose: 400.0 mg/kg/injection, schedule: Q01DX001 (ip), vehicle: saline with Tween-80
[8] = endpoint: mean survival time, dose: 400.0 mg/kg/injection, schedule: Q01DX009 (ip), vehicle: saline with Tween-80
[9] = endpoint: mean survival time, dose: 400.0 mg/kg/injection, schedule: Q04DX002 (ip), vehicle: saline with Tween-80
[10] = endpoint: mean survival time, dose: 400.0 mg/kg/injection, schedule: Q04DX003 (ip), vehicle: saline with Tween-80
[11] = endpoint: mean survival time, dose: 100.0 mg/kg/injection, schedule: Q01DX001 (ip), vehicle: carboxymethylcellulose (CMC)
[12] = endpoint: mean survival time, dose: 400.0 mg/kg/injection, schedule: Q01DX001 (ip), vehicle: carboxymethylcellulose (CMC)
[13] = endpoint: mean survival time, dose: 75.0 mg/kg/injection, schedule: Q01DX001 (ip), vehicle: saline
[14] = endpoint: mean survival time, dose: 150.0 mg/kg/injection, schedule: Q01DX001 (ip), vehicle: saline
[15] = endpoint: mean survival time, dose: 100.0 mg/kg/injection, schedule: Q04DX003 (ip), vehicle: saline

Measured: T/C

CC(=O)NC(C)(NC(=O)CCl)C(=O)O (stereo unspecified)
inactive: [1] 98 % of control | [2] 94 % of control and 108 % of control | endpoint: mean survival time, dose: 100.0 mg/kg/injection, schedule: Q04DX002 (ip), vehicle: saline with Tween-80 96 % of control and 101 % of control | [3] 106 % of control | [4] 102 % of control | [5] 89 % of control and 90 % of control | endpoint: mean survival time, dose: 200.0 mg/kg/injection, schedule: Q04DX002 (ip), vehicle: saline with Tween-80 93 % of control and 104 % of control | [6] 98 % of control | [7] 107 % of control | [8] 97 % of control | [9] 95 % of control and 101 % of control

NC(=O)N/N=C1\CC2C=CCC12 (stereo unspecified)
inactive: [3] 94 % of control | [6] 92 % of control | [10] 108 % of control

O=c1cc(-c2ccccc2)nc2c(Cl)cc(Cl)cn12
inactive: endpoint: mean survival time, dose: 100.0 mg/kg/injection, schedule: Q04DX003 (ip), vehicle: acetone 95 % of control | endpoint: mean survival time, dose: 200.0 mg/kg/injection, schedule: Q04DX003 (ip), vehicle: acetone 104 % of control | endpoint: mean survival time, dose: 400.0 mg/kg/injection, schedule: Q04DX003 (ip), vehicle: acetone 96 % of control

c1ccc(N/N=C(\c2ccccc2)c2ccccn2)cc1
inactive: [1] 105 % of control | [4] 94 % of control | [7] 94 % of control

O=[N+]([O-])c1ccc2cnn(CN3CCCCC3)c2c1
inactive: [11] 98 % of control | [12] 98 % of control

O=Cc1ccc[n+](Cc2ccccc2)c1
inactive: [13] 98 % of control | [14] 102 % of control | endpoint: mean survival time, dose: 300.0 mg/kg/injection, schedule: Q01DX001 (ip), vehicle: saline 102 % of control

O=C(COc1ccc(Cl)c(Cl)c1)NCc1ccc[n+](Cc2cccc(Cl)c2S(=O)(=O)F)c1
inactive: endpoint: mean survival time, dose: 25.0 mg/kg/injection, schedule: Q04DX003 (ip), vehicle: saline 103 % of control | endpoint: mean survival time, dose: 50.0 mg/kg/injection, schedule: Q04DX003 (ip), vehicle: saline 101 % of control | [15] 93 % of control and 100 % of control

CC(=O)OCC(OC(C)=O)C(OC(C)=O)C(COC(C)=O)OC(C)=O (stereo unspecified)
inactive: endpoint: mean survival time, dose: 25.6 mg/kg/injection, schedule: Q04DX002 (ip), vehicle: saline with Tween-80 108 % of control | endpoint: mean survival time, dose: 64.0 mg/kg/injection, schedule: Q04DX002 (ip), vehicle: saline with Tween-80 104 % of control | endpoint: mean survival time, dose: 160.0 mg/kg/injection, schedule: Q04DX002 (ip), vehicle: saline with Tween-80 93 % of control | [9] 93 % of control

O=C(/C=C/c1ccccc1)N1CC2CCC(CC2)C1
inactive: [3] 95 % of control | [6] 93 % of control

CC(C)OP(=O)(Cc1ccccc1CBr)OC(C)C
inactive: endpoint: mean survival time, dose: 100.0 mg/kg/injection, schedule: Q04DX002 (ip), vehicle: saline 109 % of control | endpoint: mean survival time, dose: 200.0 mg/kg/injection, schedule: Q04DX002 (ip), vehicle: saline 102 % of control | endpoint: mean survival time, dose: 400.0 mg/kg/injection, schedule: Q04DX002 (ip), vehicle: saline 109 % of control

c1ccc([Si]2(c3ccccc3)O[Si](c3ccccc3)(c3ccccc3)O[Si](c3ccccc3)(c3ccccc3)O2)cc1
inactive: [13] 93 % of control | [14] 87 % of control

Cc1cc(N(CCCl)CCCl)ccc1C=Nc1cccc(Cl)c1
inactive: endpoint: mean survival time, dose: 50.0 mg/kg/injection, schedule: Q01DX001 (ip), vehicle: carboxymethylcellulose (CMC) 100 % of control | [11] 107 % of control | endpoint: mean survival time, dose: 200.0 mg/kg/injection, schedule: Q01DX001 (ip), vehicle: carboxymethylcellulose (CMC) 100 % of control | [12] 94 % of control

O=C(CC1C(=O)Nc2ccccc21)c1ccccc1 (stereo unspecified)
inactive: endpoint: mean survival time, dose: 100.0 mg/kg/injection, schedule: Q04DX002 (ip), vehicle: Klucel (hydroxypropylcellulose) (HPC) 91 % of control | endpoint: mean survival time, dose: 200.0 mg/kg/injection, schedule: Q04DX002 (ip), vehicle: Klucel (hydroxypropylcellulose) (HPC) 105 % of control | endpoint: mean survival time, dose: 400.0 mg/kg/injection, schedule: Q04DX002 (ip), vehicle: Klucel (hydroxypropylcellulose) (HPC) 91 % of control

CC(=O)Nc1ccc(SC(=O)N(C)C)cc1
inactive: endpoint: mean survival time, dose: 12.5 mg/kg/injection, schedule: Q01DX009 (ip), vehicle: saline + alcohol 90 % of control | endpoint: mean survival time, dose: 25.0 mg/kg/injection, schedule: Q01DX009 (ip), vehicle: saline + alcohol 95 % of control | endpoint: mean survival time, dose: 25.0 mg/kg/injection, schedule: Q04DX003 (ip), vehicle: saline with Tween-80 98 % of control | endpoint: mean survival time, dose: 50.0 mg/kg/injection, schedule: Q01DX009 (ip), vehicle: saline + alcohol 101 % of control | endpoint: mean survival time, dose: 50.0 mg/kg/injection, schedule: Q04DX003 (ip), vehicle: saline with Tween-80 104 % of control | [3] 103 % of control

CCN(CC)CCC(CNc1c(C)cnc2cc(Cl)ccc12)c1ccc(Cl)cc1 (stereo unspecified)
inactive: [3] 100 % of control | [6] 100 % of control | [10] 94 % of control

C[N+](C)(CCCN1C(=O)c2cccc3c(Br)ccc(c23)C1=O)Cc1ccc(Cl)c(Cl)c1
inactive: endpoint: mean survival time, dose: 100.0 mg/kg/injection, schedule: Q01DX001 (ip), vehicle: other 98 % of control | endpoint: mean survival time, dose: 200.0 mg/kg/injection, schedule: Q01DX001 (ip), vehicle: other 96 % of control | endpoint: mean survival time, dose: 400.0 mg/kg/injection, schedule: Q01DX001 (ip), vehicle: other 93 % of control

O=C1OC(O)C(Cl)=C1Cl (stereo unspecified)
inactive: endpoint: mean survival time, dose: 6.25 mg/kg/injection, schedule: Q04DX002 (ip), vehicle: saline with Tween-80 107 % of control | endpoint: mean survival time, dose: 12.5 mg/kg/injection, schedule: Q04DX002 (ip), vehicle: saline with Tween-80 103 % of control | endpoint: mean survival time, dose: 25.0 mg/kg/injection, schedule: Q04DX002 (ip), vehicle: saline with Tween-80 114 % of control

CCc1ccc(NC(=S)NC(=O)/C=C/c2ccccc2)cc1
inactive: [1] 92 % of control | [2] 99 % of control and 102 % of control | endpoint: mean survival time, dose: 100.0 mg/kg/injection, schedule: Q04DX002 (ip), vehicle: alcohol 114 % of control | [3] 92 % of control | [4] 87 % of control | [5] 92 % of control and 96 % of control | endpoint: mean survival time, dose: 200.0 mg/kg/injection, schedule: Q04DX002 (ip), vehicle: alcohol 90 % of control | [7] 89 % of control | [8] 96 % of control and 105 % of control | endpoint: mean survival time, dose: 400.0 mg/kg/injection, schedule: Q04DX002 (ip), vehicle: alcohol 97 % of control | [10] 87 % of control

CCN=C(c1ccc(NC(=O)c2ccc(C(=O)Nc3ccc(C(=NCC)N(CC)C(=O)NCCCl)cc3)cc2)cc1)N(CC)C(=O)NCCCl
inactive: endpoint: mean survival time, dose: 3.75 mg/kg/injection, schedule: Q01DX015 (ip), vehicle: methylcellulose (MC) 107 % of control | endpoint: mean survival time, dose: 7.5 mg/kg/injection, schedule: Q01DX015 (ip), vehicle: methylcellulose (MC) 113 % of control

O=S1(=O)CCCCC1c1ccccc1 (stereo unspecified)
inactive: endpoint: mean survival time, dose: 100.0 mg/kg/injection, schedule: Q01DX001 (ip), vehicle: saline 87 % of control | endpoint: mean survival time, dose: 100.0 mg/kg/injection, schedule: Q01DX009 (ip), vehicle: saline 98 % of control | [15] 122 % of control | endpoint: mean survival time, dose: 200.0 mg/kg/injection, schedule: Q01DX001 (ip), vehicle: saline 95 % of control | endpoint: mean survival time, dose: 200.0 mg/kg/injection, schedule: Q01DX009 (ip), vehicle: saline 87 % of control | endpoint: mean survival time, dose: 200.0 mg/kg/injection, schedule: Q04DX003 (ip), vehicle: saline 97 % of control | endpoint: mean survival time, dose: 400.0 mg/kg/injection, schedule: Q01DX001 (ip), vehicle: saline 93 % of control | endpoint: mean survival time, dose: 400.0 mg/kg/injection, schedule: Q04DX003 (ip), vehicle: saline 98 % of control

OC1OC2COC(c3ccccc3)OC2C(O)C1O (stereo unspecified)
inactive: endpoint: median survival time, dose: 25.0 mg/kg/injection, schedule: Q01DX009 (ip), vehicle: water 106 % of control | endpoint: median survival time, dose: 50.0 mg/kg/injection, schedule: Q01DX009 (ip), vehicle: water 106 % of control | endpoint: median survival time, dose: 100.0 mg/kg/injection, schedule: Q01DX009 (ip), vehicle: water 97 % of control | endpoint: median survival time, dose: 200.0 mg/kg/injection, schedule: Q01DX009 (ip), vehicle: water 100 % of control | endpoint: median survival time, dose: 400.0 mg/kg/injection, schedule: Q01DX009 (ip), vehicle: water 101 % of control | endpoint: median survival time, dose: 800.0 mg/kg/injection, schedule: Q01DX009 (ip), vehicle: water 96 % of control

COC(=O)c1ccc(N(C)Cc2cnc3[nH]c(N)nc(=S)c3n2)cc1
inactive: endpoint: mean survival time, dose: 50.0 mg/kg/injection, schedule: Q01DX001 (ip), vehicle: saline with Tween-80 100 % of control | [1] 94 % of control | [4] 94 % of control
